Measurements: PubChem BioAssay AID2060891 (Molecular Pharmacology Branch, DTP, NCI, 2025)

System: K98450-129-R-PDC complex spheroid growth, percent test/control
Test: Anticancer human tumor K98450-129-R-PDC patient-derived colon adenocarcinoma cell line growth inhibition [RAS]
Settings: for IC50: curve of first compound; for viability, T/C: stronger effect = lower value; active = viability on the fitted dose curve at most 10% of control; inactive = the rest
Outline: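 Agents were tested in combination matrices in half-log decrements from a top concentration at or near clinical Cmax (10 microM if undetermined). Targets were multi-cell spheroids of tumour lines plus HUVEC and MSC stromal cells.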

[1] = second compound 0.000949 µM, first compound 0.0316 µM
[2] = second compound 0.000949 µM, first compound 0.1 µM
[3] = second compound 0.000949 µM, first compound 0.316 µM
[4] = second compound 0.000949 µM, first compound 1 µM
[5] = second compound 0.000949 µM, first compound 3.16 µM
[6] = second compound 0.000949 µM, first compound 10 µM
[7] = second compound 0.003 µM, first compound 0.0316 µM
[8] = second compound 0.003 µM, first compound 0.1 µM
[9] = second compound 0.003 µM, first compound 0.316 µM
[10] = second compound 0.003 µM, first compound 1 µM
[11] = second compound 0.003 µM, first compound 3.16 µM
[12] = second compound 0.003 µM, first compound 10 µM
[13] = second compound 0.00949 µM, first compound 0.0316 µM
[14] = second compound 0.00949 µM, first compound 0.1 µM
[15] = second compound 0.00949 µM, first compound 0.316 µM
[16] = second compound 0.00949 µM, first compound 1 µM
[17] = second compound 0.00949 µM, first compound 3.16 µM
[18] = second compound 0.00949 µM, first compound 10 µM
[19] = second compound 0.03 µM, first compound 0.0316 µM
[20] = second compound 0.03 µM, first compound 0.1 µM
[21] = second compound 0.03 µM, first compound 0.316 µM
[22] = second compound 0.03 µM, first compound 1 µM
[23] = second compound 0.03 µM, first compound 3.16 µM
[24] = second compound 0.03 µM, first compound 10 µM
[25] = second compound 0.0949 µM, first compound 0.0316 µM
[26] = second compound 0.0949 µM, first compound 0.1 µM
[27] = second compound 0.0949 µM, first compound 0.316 µM
[28] = second compound 0.0949 µM, first compound 1 µM
[29] = second compound 0.0949 µM, first compound 3.16 µM
[30] = second compound 0.0949 µM, first compound 10 µM
[31] = second compound 0.3 µM, first compound 0.0316 µM
[32] = second compound 0.3 µM, first compound 0.1 µM
[33] = second compound 0.3 µM, first compound 0.316 µM
[34] = second compound 0.3 µM, first compound 1 µM
[35] = second compound 0.3 µM, first compound 3.16 µM
[36] = second compound 0.3 µM, first compound 10 µM
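Note: spheroids exposed to agents for seven days before the viability readout.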
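Throughout, for viability, T/C: luminescence used as a proxy for viable cell amount.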

CCc1c2c(nc3ccc(O)cc13)-c1cc3c(c(=O)n1C2)COC(=O)[C@]3(O)CC + CCn1c(-c2cccnc2C(C)OC)c2c3cc(ccc31)N1CCOC(CC(NC(=O)C(C(C)C)N(C)C(=O)C3(F)CCN(C(=O)C#CC(C)(C)N(C)C)CC3)C(=O)N3CCCC(N3)C(=O)OCC(C)(C)C2)C1
inactive: viability, T/C (second compound 0.000949 µM, first compound 0.000949 µM) 71.1% | viability, T/C (second compound 0.000949 µM, first compound 0.003 µM) 64.6% | viability, T/C (second compound 0.000949 µM, first compound 0.00949 µM) 60.9% | viability, T/C (second compound 0.000949 µM, first compound 0.03 µM) 39.8% | viability, T/C (second compound 0.000949 µM, first compound 0.0949 µM) 30.2% | viability, T/C (second compound 0.000949 µM, first compound 0.3 µM) 25.4% | viability, T/C (second compound 0.003 µM, first compound 0.000949 µM) 58.1% | viability, T/C (second compound 0.003 µM, first compound 0.003 µM) 48.9% | viability, T/C (second compound 0.003 µM, first compound 0.00949 µM) 38.9% | viability, T/C (second compound 0.003 µM, first compound 0.03 µM) 30.9% | viability, T/C (second compound 0.003 µM, first compound 0.0949 µM) 24.3% | viability, T/C (second compound 0.003 µM, first compound 0.3 µM) 15.8% | viability, T/C (second compound 0.00949 µM, first compound 0.000949 µM) 44.3% | viability, T/C (second compound 0.00949 µM, first compound 0.003 µM) 36.2% | viability, T/C (second compound 0.00949 µM, first compound 0.00949 µM) 32.8% | viability, T/C (second compound 0.00949 µM, first compound 0.03 µM) 22.7% | viability, T/C (second compound 0.00949 µM, first compound 0.0949 µM) 16.9% | viability, T/C (second compound 0.00949 µM, first compound 0.3 µM) 14% | viability, T/C (second compound 0.03 µM, first compound 0.000949 µM) 32.8% | viability, T/C (second compound 0.03 µM, first compound 0.003 µM) 40.1% | viability, T/C (second compound 0.03 µM, first compound 0.00949 µM) 25.6% | viability, T/C (second compound 0.03 µM, first compound 0.03 µM) 24.7% | viability, T/C (second compound 0.03 µM, first compound 0.0949 µM) 19.5% | viability, T/C (second compound 0.03 µM, first compound 0.3 µM) 11.6% | viability, T/C (second compound 0.0949 µM, first compound 0.000949 µM) 35.1% | viability, T/C (second compound 0.0949 µM, first compound 0.003 µM) 33.8% | viability, T/C (second compound 0.0949 µM, first compound 0.00949 µM) 27.9% | viability, T/C (second compound 0.0949 µM, first compound 0.03 µM) 22.3% | viability, T/C (second compound 0.0949 µM, first compound 0.0949 µM) 20% | viability, T/C (second compound 0.0949 µM, first compound 0.3 µM) 11.5% | viability, T/C (second compound 0.3 µM, first compound 0.000949 µM) 36% | viability, T/C (second compound 0.3 µM, first compound 0.003 µM) 32.7% | viability, T/C (second compound 0.3 µM, first compound 0.00949 µM) 28.5% | viability, T/C (second compound 0.3 µM, first compound 0.03 µM) 18.3% | viability, T/C (second compound 0.3 µM, first compound 0.0949 µM) 15.4% | viability, T/C (second compound 0.3 µM, first compound 0.3 µM) 10.7%
< 0.949 nM: IC50 (second compound 0.00949 µM) | IC50 (second compound 0.03 µM) | IC50 (second compound 0.0949 µM) | IC50 (second compound 0.3 µM)
2.54 nM: IC50 (second compound 0.003 µM)
16.9 nM: IC50 (second compound 0.000949 µM)

CC(Nc1ccc2c(c1)OCCn1cc(N3C(=O)OCC3C(F)F)nc1-2)C(N)=O (stereo unspecified) + CCn1c(-c2cccnc2C(C)OC)c2c3cc(ccc31)N1CCOC(CC(NC(=O)C(C(C)C)N(C)C(=O)C3(F)CCN(C(=O)C#CC(C)(C)N(C)C)CC3)C(=O)N3CCCC(N3)C(=O)OCC(C)(C)C2)C1
inactive: viability, T/C [1] 77.4% | viability, T/C [2] 70.5% | viability, T/C [3] 72.1% | viability, T/C [4] 60.8% | viability, T/C [5] 71.5% | viability, T/C [6] 51.3% | viability, T/C [7] 57.7% | viability, T/C [8] 60.8% | viability, T/C [9] 51.5% | viability, T/C [10] 45.2% | viability, T/C [11] 48.9% | viability, T/C [12] 34.7% | viability, T/C [13] 46.6% | viability, T/C [14] 34.3% | viability, T/C [15] 35.8% | viability, T/C [16] 26.9% | viability, T/C [17] 37.2% | viability, T/C [18] 23% | viability, T/C [19] 37.9% | viability, T/C [20] 38.6% | viability, T/C [21] 32.4% | viability, T/C [22] 25% | viability, T/C [23] 27.3% | viability, T/C [24] 21.8% | viability, T/C [25] 34.4% | viability, T/C [26] 29.4% | viability, T/C [27] 29.9% | viability, T/C [28] 24.2% | viability, T/C [29] 24% | viability, T/C [30] 19.4% | viability, T/C [31] 34.6% | viability, T/C [32] 27% | viability, T/C [33] 31.1% | viability, T/C [34] 23.6% | viability, T/C [35] 27.5% | viability, T/C [36] 18.9%
> 10000 nM: IC50 (second compound 0.000949 µM)
< 31.6 nM: IC50 (second compound 0.00949 µM) | IC50 (second compound 0.03 µM) | IC50 (second compound 0.0949 µM) | IC50 (second compound 0.3 µM)
829 nM: IC50 (second compound 0.003 µM)

Cc1nc(N2CCC3(CC2)COC(C)C3N)c(CO)nc1Sc1ccnc(N)c1Cl (stereo unspecified) + CCn1c(-c2cccnc2C(C)OC)c2c3cc(ccc31)N1CCOC(CC(NC(=O)C(C(C)C)N(C)C(=O)C3(F)CCN(C(=O)C#CC(C)(C)N(C)C)CC3)C(=O)N3CCCC(N3)C(=O)OCC(C)(C)C2)C1
< 31.6 nM: IC50 (second compound 0.00949 µM) | IC50 (second compound 0.03 µM) | IC50 (second compound 0.0949 µM) | IC50 (second compound 0.3 µM)
inactive: viability, T/C [1] 71.8% | viability, T/C [2] 64.7% | viability, T/C [3] 54.1% | viability, T/C [4] 27.5% | viability, T/C [5] 12.1% | viability, T/C [7] 53.4% | viability, T/C [8] 39% | viability, T/C [9] 16.9% | viability, T/C [13] 32.7% | viability, T/C [14] 21.6% | viability, T/C [15] 12.3% | viability, T/C [19] 26.1% | viability, T/C [20] 14.9% | viability, T/C [21] 10.7% | viability, T/C [25] 20.9% | viability, T/C [26] 16% | viability, T/C [27] 8.78% | viability, T/C [31] 21.7% | viability, T/C [32] 14.2% | viability, T/C [33] 10.3%
365 nM: IC50 (second compound 0.000949 µM)
41.5 nM: IC50 (second compound 0.003 µM)
active: viability, T/C [6] 9.55% | viability, T/C [10] 10.4% | viability, T/C [11] 8.15% | viability, T/C [12] 7.47% | viability, T/C [16] 8.57% | viability, T/C [17] 8.2% | viability, T/C [18] 6.2% | viability, T/C [22] 10.1% | viability, T/C [23] 6.29% | viability, T/C [24] 6.11% | viability, T/C [28] 8.48% | viability, T/C [29] 8.98% | viability, T/C [30] 6.05% | viability, T/C [34] 8.27% | viability, T/C [35] 8.02% | viability, T/C [36] 6.57%
